Common to all, as to format: biochemical
The target in assay [1] is T1, AKR1C3 (Homo sapiens, UniProt P42330).
T1 construct: gift of Professor Trevor Penning (University of Pennsylvania School of Medicine)
T1 sequence (P42330 1-323): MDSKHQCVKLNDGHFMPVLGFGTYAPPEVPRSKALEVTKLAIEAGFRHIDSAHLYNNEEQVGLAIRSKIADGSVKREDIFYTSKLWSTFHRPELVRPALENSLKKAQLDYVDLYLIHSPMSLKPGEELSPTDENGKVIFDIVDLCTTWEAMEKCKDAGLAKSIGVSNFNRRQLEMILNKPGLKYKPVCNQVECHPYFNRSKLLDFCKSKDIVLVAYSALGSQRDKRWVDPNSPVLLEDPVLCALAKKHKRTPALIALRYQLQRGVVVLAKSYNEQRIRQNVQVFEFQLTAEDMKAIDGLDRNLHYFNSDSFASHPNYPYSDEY
As to the kind of experiment: Steady state kinetic parameters of fluorogenic substrates with purified AKR1C isozymes. The settings on record: isozyme 1C3, fluorimetric; for activity as substrate (product formation): 10 μg enzyme; for Kcat / Km: potassium phosphate buffer pH 6, NADPH. The protocol:
The initial reaction rates were used to derive standard kinetic parameters (kcat and Km, Materials and Methods).
Substrate tolerance of AKR1Cs: Isozyme Activity with 5a-5i: Activity of the second generation of fluorogenic substrates with the AKR1C isozymes was determined as follows. […] After mixing the aqueous components thoroughly, 20 μL of acetonitrile was added as a cosolvent and mixed well. […] 4 μL of undiluted AKR1C (provided generously by the Penning lab at concentrations of 2.5 mg/mL) were then added to the cuvette for a total of 10 μg purified enzyme in the 1 mL assay volume. Fluorescence arising from the respective alcohol reduction product was then monitored over the course of 5-10 minutes.
Binding constant and catalytic rates (Km and kcat) of the second generation of fluorogenic substrates was determined as follows. […] After mixing the aqueous components thoroughly, 20 μL of acetonitrile was added as a cosolvent and mixed well. […] To initiate the reduction, 2 or 4 μL of diluted AKR1C (1:2 to 1:100, depending on the kinetics of a particular isozyme's reduction of a substrate) was then added to the cuvette. Fluorescence arising from the respective alcohol reduction product was then monitored over the course of 3 minutes (Excitation and emission band pass slits both at 4 nm, lamp 700 V, λexc 410 nm, λem 510).
(§1) initial rate=[nst×(Ft−F0)/(Fst)]/t (1)
where Ft and F0 represent the fluorescence at times t and 0 minutes, nst is the nanomoles of product in a known concentration of product, and Fst is the fluorescence resulting from nst of product. […] Reported enzymatic kinetic parameters are the average of three independent determinations from three different preparations of substrate and enzyme.

Assay [2] concerns the target T2, AKR1C4 (Homo sapiens, UniProt P17516).
T2 construct: gift of the Penning lab (University of Pennsylvania School of Medicine)
T2 sequence (P17516 1-323): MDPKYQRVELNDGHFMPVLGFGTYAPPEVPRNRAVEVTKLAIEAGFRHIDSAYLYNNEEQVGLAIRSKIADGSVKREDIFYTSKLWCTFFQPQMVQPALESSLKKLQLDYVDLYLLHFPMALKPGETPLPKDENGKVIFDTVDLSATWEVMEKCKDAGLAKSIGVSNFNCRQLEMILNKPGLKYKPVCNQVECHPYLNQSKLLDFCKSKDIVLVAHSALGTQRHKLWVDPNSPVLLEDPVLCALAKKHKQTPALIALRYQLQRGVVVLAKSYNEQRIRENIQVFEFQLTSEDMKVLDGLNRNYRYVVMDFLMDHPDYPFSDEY
The assay is described as above. On the set-up: key to activity as substrate (product formation): no activity = 10 μg enzyme produced less than 0.1 nmol product per min (determined fluorimetrically). The note with it: isozyme 1C4, fluorimetric; for activity as substrate (product formation): 10 μg enzyme; for Kcat / Km: potassium phosphate buffer pH 6, NADPH.
Description: (§2) AKR1C2 and AKR1C3 Selective Probes: Probes (5a-5i) were examined as substrates for the four purified human HSD isozymes (AKR1C1-AKR1C4) under standard assay conditions [catalytic quantities of enzyme, an excess of cofactor (NADPH)]. The initial reaction rates were used to derive standard kinetic parameters (kcat and Km, Materials and Methods).
(§3) Substrate tolerance of AKR1Cs: Isozyme Activity with 5a-5i: Activity of the second generation of fluorogenic substrates with the AKR1C isozymes was determined as follows. To a STARNA semi-micro fluorimeter cell (with 4 polished windows) was added 100 μL of 1 M potassium phosphate buffer (pH 6), 840 μL doubly deionized water, and 20 μL of 12.5 mM NADPH. After mixing the aqueous components thoroughly, 20 μL of acetonitrile was added as a cosolvent and mixed well. 20 μL of 2.5 mM second generation fluorogenic ketone in acetonitrile (5a-5i) was then added and mixed. 4 μL of undiluted AKR1C (provided generously by the Penning lab at concentrations of 2.5 mg/mL) were then added to the cuvette for a total of 10 μg purified enzyme in the 1 mL assay volume. Fluorescence arising from the respective alcohol reduction product was then monitored over the course of 5-10 minutes.
(§4) Binding constant and catalytic rates (Km and kcat) of the second generation of fluorogenic substrates was determined as follows. To a STARNA semi-micro fluorometer cell (with 4 polished windows) was added 100 μL of 1 M potassium phosphate buffer (pH 6), 840 μL doubly deionized water, and 20 AL of 12.5 mM NADPH. After mixing the aqueous components thoroughly, 20 μL of acetonitrile was added as a cosolvent and mixed well. 20 μL of the second generation fluorogenic ketone (5a-5i) was then added and mixed to achieve assay concentrations of 5Km to Km/5. To initiate the reduction, 2 or 4 μL of diluted AKR1C (1:2 to 1:100, depending on the kinetics of a particular isozyme's reduction of a substrate) was then added to the cuvette. Fluorescence arising from the respective alcohol reduction product was then monitored over the course of 3 minutes (Excitation and emission band pass slits both at 4 nm, lamp 700 V, λexc 410 nm, λem 510). The rate of product formation, expressed in units of nanomoles per minute, were calculated according to previously published procedures (Wierzchowski, J.; Dafeldecker, W. P.; Holmquist, B.; Vallee, B. L. Anal. Biochem. 1989, 178, 57-62):
as §1
(§5) where Ft and F0 represent the fluorescence at times t and 0 minutes, nst is the nanomoles of product in a known concentration of product, and Fst is the fluorescence resulting from nst of product. Kinetic parameters were approximated by GraFit (Erithacus Software, Surrey, UK) nonlinear regression analysis program to fit the untransformed data to a hyperbolic function as originally described (Wierzchowski, J.; Dafeldecker, W. P.; Holmquist, B.; Vallee, B. L. Anal. Biochem. 1989, 178, 57-62). Reported enzymatic kinetic parameters are the average of three independent determinations from three different preparations of substrate and enzyme.

The target of assay [3] is T3, AKR1C2 (Homo sapiens, UniProt P52895).
T3 construct: gift of the Penning lab (University of Pennsylvania School of Medicine)
T3 sequence (P52895 1-323): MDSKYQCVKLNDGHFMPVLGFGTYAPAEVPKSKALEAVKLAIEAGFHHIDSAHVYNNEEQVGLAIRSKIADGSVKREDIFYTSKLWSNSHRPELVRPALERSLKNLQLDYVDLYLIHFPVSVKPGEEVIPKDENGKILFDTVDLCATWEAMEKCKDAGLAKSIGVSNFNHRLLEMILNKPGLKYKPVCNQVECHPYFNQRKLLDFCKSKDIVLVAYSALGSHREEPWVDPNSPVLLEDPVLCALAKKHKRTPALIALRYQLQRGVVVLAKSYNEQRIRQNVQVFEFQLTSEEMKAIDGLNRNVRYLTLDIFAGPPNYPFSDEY
The assay is described as above. Also on record: key to activity as substrate (product formation): no activity = 10 μg enzyme produced less than 0.1 nmol product per min (determined fluorimetrically). The settings on record: isozyme 1C2, fluorimetric; for activity as substrate (product formation): 10 μg enzyme.
Description: as §2, §3, §4, §1, §5

The target in assay [4] is T4, AKR1C1 (Homo sapiens, UniProt Q04828).
T4 construct: gift of the Penning lab (University of Pennsylvania School of Medicine)
T4 sequence (Q04828 1-323): T3 sequence (P52895 1-323) with V38T, H47R, V54L, S87C, M151V, H170R, L172Q
Described as above. On the set-up: key: no activity = 10 μg enzyme produced less than 0.1 nmol product per min (determined fluorimetrically). The note with it: isozyme 1C1; 10 μg enzyme, fluorimetric.
Description: as §2, §3, §4, §1, §5

Assay [5] addresses T1, AKR1C3. As to the kind of experiment: Determination of kinetic parameters for AKR1C3 (fluorogenic substrate 5). The settings on record: Type 2 isozyme of 3α-HSD (AKR 1C3). Here is the method: Whether the activity of human enzymes may be imaged by probe 5 was investigated. Type 2 isozyme of 3α-HSD (AKR 1C3) was selected for this study owing to its important physiological role.
Fluorogenic substrate 5 reduction was monitored on a Hitachi F-4500 fluorimeter in Starna quartz cuvettes fluorometrically in 1 mL systems containing 100 mM potassium phosphate pH 6.0 containing excess of NADPH cofactor (250 μM) and various amounts of the substrate (0.1953-50 μM) dissolved in 4% acetonitrile. […] Cuvettes were mixed thoroughly after addition of cofactor, cosolvent, and substrate. Reactions were initiated by the addition of 4 μL of dilute AKR1C3 (115 μg/mL) and were corrected for nonenzymatic rates. All reactions were followed by monitoring the increase in fluorescence of the product alcohol for 5 minutes at λem 510 nm with λex 440 nm (Excitation and emission band pass slits both at 2.5 nm, lamp 900 V) at 37° C. The initial velocities, expressed in units of nanomoles per minute, were calculated according to previously published procedures (Wierzchowski, J.; Dafeldecker, W. P.; Holmquist, B.; Vallee, B. L. Anal. Biochem. 1989, 178, 57-62): initial rate=[nst×(Ft−F0)/(Fst)]/t where Ft and F0 represent the fluorescence at time t and 0, nst is the nanomoles of the product standard, and Fst is the fluorescence resulting from nst of product. Kinetic constants were approximated using the GraFit (Erithacus Software, Surrey, UK) non-linear regression analysis program to fit the untransformed data to a hyperbolic function as originally described (Wilkinson, G. N. Biochem. J. 1961, 80, 324-332), yielding estimated values of kcat, Km, and their associated standard errors.

Molecules are shown by their SMILES. Where a chain is given by its changes, count along the chain named.

From patent US20100048604A1, “Ligands for Aldoketoreductases” (priority 2004, published 2010) come the findings set out here.

For `CC(C)C(=O)c1cc(=O)oc2c3c4c(cc12)CCCN4CCC3`, the “activity as substrate (product formation)” value (from here on “activity as substrate”) in assay [1], in assay [2], in assay [3] and in assay [4] was “no activity” throughout.

The term Km denotes the substrate concentration at which the rate is half of its maximum. Regarding `CC(=O)c1cc(=O)oc2cc3c(cc12)CCCN3`, the Kcat was 0.155 s⁻¹ in assay [1] and 0.00983 s⁻¹ in assay [3] (potassium phosphate buffer pH 6, NADPH). The Km in assay [1] came to 4.3 µM. In addition, the “activity as substrate” value in assay [2] and in assay [4] was “no activity” each time.

For the compound `O=C1CCc2c1c1cc3c4c(c1oc2=O)CCCN4CCC3`, in assay [1], the Kcat is 0.12 s⁻¹ and the Km is 0.13 µM. The “activity as substrate” value in assay [2] is on record as “no activity”.

Consider `C[C@]12CCC(=O)C[C@@H]1CC[C@@H]1[C@@H]2CC[C@]2(C)[C@@H](O)CC[C@@H]12` [5α-dihydrotestosterone, reference compound], for which the Kcat in assay [1] and in assay [5] was 0.00417 s⁻¹ throughout. Also, the Km in assay [1] and in assay [5] was 26 µM in each case.

`O=C(c1cc(=O)oc2c3c4c(cc12)CCCN4CCC3)C1CCCCC1`: the “activity as substrate” value in assay [1], in assay [2], in assay [3] and in assay [4] was “no activity” in each case.

For `CC(=O)c1c(-c2ccccc2)c(=O)oc2c3c4c(cc12)CCCN4CCC3` [drawing 213], the “activity as substrate” value in assay [1], in assay [2], in assay [3] and in assay [4] was “no activity” throughout.

On to `CC(=O)c1cc(=O)oc2c3c4c(cc12)CCCN4CCC3` [drawing 207], for which, in assay [1], the Kcat turned out to be 0.125 s⁻¹ and the Km was 1.1 µM. Besides, in assay [2], the Kcat is 0.00633 s⁻¹ and the Km was 20.6 µM.

Consider `CC(=O)c1cc(=O)oc2cc(N(C)C)ccc12`, for which, in assay [1], the Kcat is 0.145 s⁻¹ and the Km was 4.3 µM. In addition, in assay [2], the Kcat is 0.035 s⁻¹ and the Km is 14.8 µM.

With `CC(=O)c1cc(=O)oc2c3c(ccc12)NCCC3`, the Kcat in assay [1] was 0.115 s⁻¹; in assay [2], 0.0233 s⁻¹. Also, the Km in assay [1] was 8.3 µM; in assay [2] it was 40.2 µM.

As for `CC(=O)c1c(Br)c(=O)oc2c3c4c(cc12)CCCN4CCC3` [drawing 212], the “activity as substrate” value in assay [1], in assay [2], in assay [3] and in assay [4] was “no activity” throughout.

Regarding `O=C(c1ccccc1)c1cc(=O)oc2c3c4c(cc12)CCCN4CCC3` [drawing 210], the Kcat in assay [1] amounted to 0.09 s⁻¹; in assay [2], 0.0103 s⁻¹. In addition, the results for the Km in assay [1] and in assay [2] were 0.051 µM and 6.2 µM, respectively.
